Tests used:
HBV RNaseH [1] = target: T1, HBV RNaseH (Hepatitis B virus genotype D subtype ayw, UniProt P03156); assay: Detection of capsid-associated RNA:DNA heteroduplexes by Southern analysis; format: cell-based; set-up: expressed in transfected cells; host or cells: HepDES19 (HepG2 with a stably transfected HBV genotype D genome); settings: HepDES19 cells, seven days; #89 at 4×EC50 (10.4 μM), #138 at 30 μM
Experimental: RNA:DNA heteroduplexes migrate as double-stranded products, but degradation of the RNA strand with exogenous RNase causes the DNAs to migrate as single-stranded species. To test for accumulation of RNA:DNA heteroduplexes, HepDES19 cells replicating HBV were treated with 4×EC50 (10.4 μM) of compound #89 and 30 μM compound #138 (negative control). HBV cores were harvested after seven days of compound treatment. Capsid-associated nucleic acids were purified and split into two pools; one pool was treated with RNaseA and the other pool was mock treated.
HepDES19 cells were plated in 100 mm dishes without tetracycline and incubated for 72 hours in the absence of tetracycline before addition of compound #89 at 4×EC50 (10.4 μM) and the negative control compound #138 at 30 μM; compound-containing media was replaced every three days. HBV nucleic acids were purified seven days after compound addition. HBV core particles were isolated by sedimentation through a sucrose cushion as described (Tavis et al., 1998). Cores were treated overnight with proteinase K (0.5 mg/mL) and 1.5% SDS at 37° C. Nucleic acids were purified by phenol-chloroform extraction and ethanol precipitation. The nucleic acids were split into two pools. One pool was treated with RNaseA (1.5 μg/μL) at 37° C. for 30 minutes and the other was mock-treated. […]
Target sequence in this assay (P03156 whole entry): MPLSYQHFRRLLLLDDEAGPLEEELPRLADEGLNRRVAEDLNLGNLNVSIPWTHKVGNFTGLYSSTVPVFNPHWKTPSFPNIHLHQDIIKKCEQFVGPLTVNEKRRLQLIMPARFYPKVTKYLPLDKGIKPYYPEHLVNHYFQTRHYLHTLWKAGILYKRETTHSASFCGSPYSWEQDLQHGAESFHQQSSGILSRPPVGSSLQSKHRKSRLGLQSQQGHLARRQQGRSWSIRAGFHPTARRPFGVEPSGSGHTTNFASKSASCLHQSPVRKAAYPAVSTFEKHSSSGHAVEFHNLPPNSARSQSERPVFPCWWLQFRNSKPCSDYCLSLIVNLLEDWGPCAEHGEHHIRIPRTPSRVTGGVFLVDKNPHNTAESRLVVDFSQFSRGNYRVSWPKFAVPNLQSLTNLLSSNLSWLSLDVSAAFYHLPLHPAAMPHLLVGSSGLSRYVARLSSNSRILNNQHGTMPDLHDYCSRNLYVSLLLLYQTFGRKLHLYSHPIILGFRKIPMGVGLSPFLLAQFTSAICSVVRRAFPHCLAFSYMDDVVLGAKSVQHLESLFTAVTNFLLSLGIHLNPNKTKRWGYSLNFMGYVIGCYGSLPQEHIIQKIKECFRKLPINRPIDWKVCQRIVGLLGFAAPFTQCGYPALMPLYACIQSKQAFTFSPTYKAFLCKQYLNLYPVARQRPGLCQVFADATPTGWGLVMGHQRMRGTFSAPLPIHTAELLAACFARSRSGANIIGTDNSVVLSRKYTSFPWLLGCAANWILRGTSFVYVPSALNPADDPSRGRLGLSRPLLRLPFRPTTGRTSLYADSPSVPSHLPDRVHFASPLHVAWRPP

HBV RNaseH [2] = target: T1, HBV RNaseH; assay: Molecular beacon RNaseH assay
Target sequence in this assay (P03156 671-832): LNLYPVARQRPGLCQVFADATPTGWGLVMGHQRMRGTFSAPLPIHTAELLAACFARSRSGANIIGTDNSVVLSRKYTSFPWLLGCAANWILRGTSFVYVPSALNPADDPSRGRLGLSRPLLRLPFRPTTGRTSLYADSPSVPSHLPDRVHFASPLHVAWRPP
Experimental: In this assay, a hairpin DNA oligonucleotide labeled with fluorescein on one end and a quencher on the other is held in a linear conformation by annealing to a complementary RNA; cleavage of the RNA causes the DNA to fold into a hairpin, suppressing fluorescence (FIG. 8A).
The substrate is a hairpin DNA oligonucleotide with a 5′ fluorescein reporter and a 3′ black hole quencher annealed to a complementary RNA oligonucleotide. The reaction was initiated by adding 5 mM Mg^++, and fluorescence was monitored at 37° C. with a Synergy 4 96-well plate reader. Inhibition was qualitatively determined as a dose-dependent reduction in the rate of substrate degradation.

O=C1c2ccccc2C(=O)N1O [Compound 138]
accumulation of RNA:DNA heteroduplexes (HBV RNaseH [1]): unaltered by exogenous RNase treatment | inhibition in the molecular beacon assay (HBV RNaseH [2]; 2.1 μg purified HBV RNaseH): had no effect on the rate of substrate degradation | Inhibition of HBV RNaseH, Molecular Beacon cleavage assay (HBV RNaseH [2]; Table 3, 0 to 500 μM): − (No inhibition detected at 500 μM)

— patent US20190070165A1, “N-HYDROXYISOQUINOLINEDIONE INHIBITORS OF HBV REPLICATION” (Saint Louis University, priority 2016, published 2019)
